Laboratory results as given in article PMC8828953, “In vitro Bioaccessibility and Intestinal Absorption of Selected Bioactive Compounds in Terminalia ferdinandiana” (Frontiers in Nutrition, 2022).
Several values for one entry are separate records, joined by “and”; a condition that tells them apart may be missing. Equal values may be shown once. Entries after “also recorded” stand apart in the source; their conditions may differ. Read-outs that look alike come from different tables or passages of the source. Marks after values point to notes of the source that are not given here.

Assays:
[1] = INFOGEST static in vitro gastrointestinal digestion, bioaccessibility from T. ferdinandiana freeze-dried powder; format: in vitro ADME
Procedure: Freeze-dried T. ferdinandiana powder (0.5 g) was mixed with 20 mL milli-Q water, vortexed, and used as the initial starting material for in vitro gastrointestinal digestion based on the INFOGEST model detailed in Section INFOGEST Gastrointestinal in vitro Digestion ([14]). Digestions were performed in duplicate with samples collected at various time points throughout the digestion process. Gastric digesta samples were collected at t = 0 (G0) and t = 60 (G60) min into the gastric phase, and intestinal digesta were collected at t = 30 (I30), t = 60 (I60), and t = 120 (I120) min into the intestinal digestion phase.
A harmonized in vitro gastrointestinal digestion method developed in the COST action INFOGEST network was applied ([14]). Oral phase was not included in this experiment as T. ferdinandiana fruit is currently marketed as freeze-dried powder that would not undergo a substantial oral phase or may be incorporated into a nutraceutical product in pill, capsule, or beverage form. The digestive fluids (simulated salivary fluid (SSF), simulated gastric fluid (SGF), and simulated intestinal fluid (SIF)) were prepared according to the INFOGEST method ([14]). The activity of all enzymes was also measured according to the protocols described in the INFOGEST method ([14]) to ensure standardized application. […] Porcine pancreatin was used at 16 units/mL trypsin activity. […] Figure 1 provides an overview of the digestion protocols and conditions employed in the study. At the end of each digestion steps, samples were collected and snap-frozen (−80°C) to stop the digestion. Pefabloc at a concentration of 0.1 M was recommended to stop intestinal digestion; however, considering the cytotoxic nature of Pefabloc at a concentration ≥ 0.25 mM, Pefabloc was not applied to avoid future cell toxicity.
The samples were centrifuged and filtered through 0.22 μm syringe filters prior to analysis. An Acquity UHPLC system (Waters Corp., Milford, MA, USA), equipped with a Waters Acquity UHPLC photodiode array (PDA) detection system, was used to carry out the analysis. Empower™ software (Waters Corp., USA) was used to process and quantify peaks after recording the signals. A Waters Acquity HSS T3 analytical column (100 mm × 2.1 mm, 1.8 μm particle size) (Waters Corp., USA), with an isocratic mobile phase of 0.1% aqueous (v/v) formic acid at a flow rate of 250 μL/min, was used with an injection volume of 2 μL. The absorbance was measured at room temperature at 245 nm.
T. ferdinandiana digesta and intestinal absorption samples were analyzed for EA. All samples were centrifuged and filtered through 0.22 μm PTFE membrane filters (Millipore, CA, USA) before injection into the chromatographic system. Samples were analyzed on a Waters Acquity UHPLC system (Waters Corp., Milford, MA, USA) equipped with PDA detector. A Waters BEH Shield RP18 Column 130 °A, 1.7 μm (100 mm X 2.1 mm) from Waters Corporation (Milford, Massachusetts, USA) was used. Column temperature was maintained at 40°C, the injection volume was 2 μL, PDA spectrum was scanned from 200 to 400 nm with a rate of 2.5 Hz, and detection was carried out at 254 nm. […] Formic acid 0.1% was used for mobile phase A (Milli-Q water) and phase B (acetonitrile) at a flow rate of 0.4 mL/min.
T. ferdinandiana digesta and intestinal absorption samples were cleaned up with a SPE step ([20]) for OA analysis. Mixed reversed phase-[…] anion exchange sorbent Strata® SAX (55 μm, 70 Å, 500 mg/3 mL) was purchased from Phenomenex (Torrance, CA, USA) and used in this study. The SPE process was maintained through an Analytichem VAC ELUT SPS 24 Port Vacuum Manifold from Agilent Varian (Santa Clara, CA, USA). The SPE columns were sequentially conditioned with 3 mL of methanol and 3 mL of milli-Q water. Digesta and intestinal absorption samples at a volume of 1 mL dripped through the cartridges by gravity (with a flow rate of about 1 mL/min). The cartridges were washed with 3 mL of water and 3 mL of methanol.

[2] = Intestinal absorption assay (Papp, apical to basolateral) across Caco-2-HT29-MTX-E12 coculture on Transwell; format: in vitro ADME, human; conditions: human, 10:1 dilution, applied 2 h, read-out: Apparent permeability (Papp)
Procedure: (§1) Caco-2 and HT-29-MTX-E12 cells were seeded on Costar Transwell® plate inserts in a ratio of 9:1 and at a density of 1,09,000 cells/cm^2 and 12,120 cells/cm^2, respectively. Cells were cultured in growth media at 37°C and 5% CO2 for 21 days to facilitate cell differentiation and formation of an intact monolayer. During the 21-day differentiation period, growth media was removed and replaced with fresh media every 2–3 days. Cell differentiation of an intact monolayer was monitored by measuring the transepithelial electrical resistance (TEER) of the cell monolayer in an apical–basolateral direction. TEER was measured using the Millicell-ERS Voltohmmeter from Millipore (Burlington, MA, USA). TEER is a measurement of resistance and is a sensitive and convenient method to assess and the integrity of the cell monolayer. The values obtained are determined by cellular resistance (between apical and basolateral membrane) and the paracellular resistance (tight junctions). TEER values above 300 Ω.cm^2 are indicative of differentiated Caco-2-HT29-MTX-E12 cells and an intact monolayer ([17]).
(§2) In vitro absorption was performed by following the procedure described by Osborne and colleagues ([18]). On the day of the intestinal absorption assay, TEER was measured and growth media was replaced with HBSS in the apical and basolateral chambers for 2 h to enhance uptake of the applied digesta. For the absorption study, intestinal digesta samples (I30, I60, and I120) were diluted 10:1 with HBSS. […] In the apical chamber, 200 μL diluted intestinal digesta (I30, I60, and I120) were applied for 120 min. HBSS (600 μL) was added in the basolateral chamber. After 2 h, all apical and basolateral samples were collected and stored at−80°C. HBSS was replaced with growth media in all chambers with TEER values measured again immediately after the assay. TEER was also recorded 24 and 48 h after the assay. Intestinal absorption studies were performed in duplicate. The rate of EA, AA, OA, and Ca^2+ movement across the transwell® membrane was determined by calculating the apparent permeability coefficient (Papp) in cm/s as follows ([19]):
(§3) ΔQ/Δt is steady-state appearance rate of compound in receiver (basolateral) compartment (μmol/s).
(§4) A is the surface area of the filter (i.e., 0.33 cm^2).
(§5) C0 is the initial concentration in the donor (apical) compartment (μM).
(§6) Intestinal absorption of AA, EA, OA, and Ca^2+ from digested T. ferdinandiana powder was measured using Caco-2-HT29-MTX-E12 coculture cell monolayers. Intestinal digesta samples that were collected at different time points (I30, I60, and I120) throughout the in vitro digestion were applied to the coculture transwell model for 120 min before apical and basolateral samples were collected. The amount of AA, EA, OA, and Ca^2+ was measured in the digesta initially applied to the apical chamber of the transwell model, and in samples collected from the basolateral chamber. Apparent permeability (Papp) was calculated with statistical significance observed (p ≤ 0.05) in Papp values obtained from the applied I30, I60, and I120 digesta samples (Figure 4 and Table 2).

[3] = tested on: Caco-2-HT29-MTX-E12 coculture cell monolayers; assay: as above; format: in vitro ADME, human; conditions: for In vitro permeability (in words): comparison among AA, EA, OA, Ca^2+; for Apparent permeability (Papp): 10:1 dilution, applied 2 h
Procedure: as §1, §2, §3, §4, §5, §6

[4] = parameters: method as in PMID 23374081; conditions: blended fruit juice containing orange, pineapple, and kiwi; cited from earlier work
[5] = tested on: Caco-2 cell barrier; parameters: method as in PMID 27738446; conditions: reported previously; cited from earlier work
[6] = tested on: HepG2 cells; parameters: method as in PMID 19101929; conditions: cited from earlier work
[7] = Gastric t = 0 (G0), released from T. ferdinandiana fruit matrix
[8] = Gastric t = 60 min (G60), pepsin
[9] = Intestinal t = 30 min (I30), pancreatin and bile
[10] = intestinal phase, time point not stated

Row | Compound | Bioaccessibility [1, 7] | Bioaccessibility [1, 8] | Bioaccessibility [1, 9] | Bioaccessibility ([1]; Intestinal t = 60 min (I60)) | Bioaccessibility ([1]; Intestinal t = 120 min (I120)) | Bioaccessibility [1, 10] [%] | Papp at 120 min ([2]; I30 digesta) [×10⁻⁶ cm/s] | Papp at 120 min ([2]; I60 digesta) [×10⁻⁶ cm/s] | Papp at 120 min ([2]; I120 digesta) [×10⁻⁶ cm/s] | In vitro permeability (in words) [3] | Recovery after gastric digestion [4] [%] | Papp [5] | Time at which absorption was detected after application [6] [min] | Time of peak absorption [6] [h] | Bioaccessibility ([1]; Gastric t = 0 (G0), released from T. ferdinandiana fruit matrix, listed as calcium) [%] | Apparent permeability (Papp) ([3]; I30 digesta) | Apparent permeability (Papp) ([3]; I60 digesta) | Apparent permeability (Papp) ([3]; I120 digesta)
1 | O=C(O)C(=O)O [OA, oxalic acid] | 72% and 72 ± 7^c % | 85 ± 2^a % | 98% and 99^a ± 0.0% | 98 ± 3^a % | 89% and 89 ± 1^a % | 98 | 258 ± 5 | 231 ± 1 | 150 ± 7 | – | – | – | – | – | – | – | – | –
2 | O=C1O[C@H]([C@@H](O)CO)C(O)=C1O [AA, ascorbic acid] | 93% and 93 ± 2^a % | – | 93% and 93 ± 7^a % | 100% and 100 ± 1^a % | 79% and 79 ± 5^a % | – | 41 ± 5 | 19 ± 0.4 | 10 ± 0.1 | low apparent permeability; also recorded: in vitro permeability was low | 83 | – | – | – | – | – | – | –
3 | O=c1oc2c(O)c(O)cc3c(=O)oc4c(O)c(O)cc1c4c23 [EA, ellagic acid] | 33% and 33 ± 1^b % | 42 ± 1^b % | 49% and 49 ± 3^b % | 49% and 49 ± 1^b % | 48% and 48 ± 1^b % | 48 | 796 ± 7 | 394 ± 4 | 201 ± 2 | highest permeability | – | 0.347 ± 0.018 /10^−6 cm/s | 15 | 4 | – | – | – | –
4 | [Ca+2] [Ca^2+, calcium] | 67 ± 4^c % | 69 ± 1^a % | 90% and 90^a ± 0.0% | 90% and 90 ± 1^c % | 79% and 79 ± 2^a % | 90 | – | – | – | – | – | – | – | – | 67 | 60 ± 6^a x 10^−6 cm/s | 56 ± 7^a x 10^−6 cm/s | 50 ± 9^a x 10^−6 cm/s
